Measurements published in patent US20080096449A1, “USE OF METALLIC GLUCONATE SALTS IN THE PRODUCTION OF ANTIMICROBIALLY ACTIVE SUBSTRATES” (priority 2002, published 2008).

Key:
Test in all cases: Minimum inhibitory concentration (MIC)
Assay type in all cases: cell-based
[1] = test system: Staphylococcus aureus ATCC 6538; details: strain SA
[2] = test system: Pseudomonas aeruginosa ATCC 9027; details: strain PA
[3] = test system: Escherichia coli ATCC 11229; details: strain EC
[4] = test system: Candida albicans ATCC 10231; details: strain CA
[5] = test system: Aspergillus niger ATCC 16404; details: strain AN

**Q.** What does the source list for zinc gluconate?
**A.** MIC [1]: 5000 ppm; MIC [2]: 12500 ppm; MIC [3]: 6250 ppm; MIC [4]: 3120 ppm; MIC [5]: 6250 ppm
